Results as given in PMC9818021, “Targets, Mechanisms and Cytotoxicity of Half-Sandwich Ir(III) Complexes Are Modulated by Structural Modifications on the Benzazole Ancillary Ligand” (Cancers, 2022).

What was measured:
SW480 cells = assay: Ir cellular uptake by ICP-MS; assay type: cell-based, human; conditions: 2 µM, 24 h
Method: Quantification of Ir cellular uptake by ICP-MS (Inductively coupled plasma-mass spectrometry). Metal accumulation studies were conducted on the SW480 cell line. In these experiments, 3 × 10^5 cells were seeded in 12.5 cm^2 tissue culture flasks in drug-free medium and incubated for 24h at 37 °C in a 5% CO2 humidified atmosphere. Then, cells were treated with 2 µM of the iridium complexes. After 24 h of exposure, cells were washed twice with PBS and harvested. The pellets were resuspended in PBS, and 10 µL were used to count cells. Then, each resuspended pellet was digested in 65% HNO3 for 24 h. Finally, solutions were analyzed in a 7700 ICP-MS (Agilent Technologies, Palo Alto, CA, USA). Data is reported as the mean the standard deviation (n = 3).

cytosolic Ca2+ = assay: Cytosolic calcium (Fluo3/AM); assay type: cell-based; conditions: 16 µM, after 4 h of incubation
Method: Specific assays with 1[C,NH] complex were performed according to manufacturer’s instructions using the following reagents from Molecular Probes (Thermo Fisher Scientific): Measurements of ROS: Dihydroethidium (DHE, D11347) and 2′, 7′-dichlorodihydrofluorescein diacetate (H2DCFDA, D399); detection of caspases 3/7: CellEvent Caspase-3/7 Green Detection Reagent (C10423); Cell viability: Live/Dead Cell Imaging Kit (R37601); Analysis of cytosolic calcium concentration: Fluo3/AM (F23915); Analysis of MMP: Tetramethylrhodamine methyl ester perchlorate (TMRM, T668). RT-qPCR’s assays were performed with the following primers/probes from Thermo Fisher Scientific: DCP1A (Hs00218198-m1), FOSB (Hs00171851-m1), EGR1(Hs0015928-m1), ATF3 (Hs00231069-m1), DDIT3 (Hs00358796-g1), PP1R15A (Hs00169585-m1), CHAC1(Hs00225520-m1), MIR9-1 (Hs04231512-s1), ATP1B2 (Hs00155922-m1), BBC3 (Hs00248075-m1), BCL2L11 (Hs00798019-s1), PMAIP1 (Hs00560402-m1), SKP2 (Hs01021864-m1) and HIST1H1B (Hs00271207-s1). RT-qPCR experiments were performed as described.

CHOP = CHOP induction (CHOP::GFP plasmid); assay type: cell-based, human; conditions: HEK293, 9.7 µM, 24 h time-lapse
Method: CHOP induction. HEK293 cells were seeded at 8 × 10^5 cell/well in 24-well plates and transfected with CHOP::GFP plasmid (Addgene plasmid #21898; http://n2t.net/addgene:21898; RRID:Addgene_21898, 10 November 2022) using the transfection reagent DreamFectTM Gold (OZ Bioscience, Cat. N. º LM80250). After 24 h incubation, the treatments were added: 1[C,NH] 9.7 µM; tunicamycin 0.5 µM as positive control. Cells were stained with propidium iodide (1 µg/mL). Time-lapse images were acquired every 30 min for 24 h.

A549 cells = assay: GSH/GSSG-Glo assay; assay type: cell-based, human; conditions: 1 h
Method: DNA damage was measured using EpiQuik 8-OHdG DNA Damage Quantification Direct Kit (colorimetric) (Fischer, Waltham, MA, USA, P600396); The mitochondrial cytochrome C release was evaluated using the “Millipore’s FlowCellect Cytochrome C Kit (Millipore, FCCH100110)”. Lactate dehydrogenase activity release was measured in the culture medium using Cytotoxicity Detection Kit (Roche Diagnostic, Barcelona, Spain, 11 644 793 001). Protein synthesis was determined using Click-iT Plus O-propargyl-puromycin (OPP) Protein Synthesis Assay Kit (Invitrogen™, Waltham, MA, USA). Measurement of GSH/GSSG was determined with GSH/GSSG-Glo Assay (Promega, V6611). Measurements of OCR and ECAR with Seahorse XFp (Agilent Technologies) were determined using the XFp Cell Mito Stress Test Kit (103010-100) and XFp Glycolysis Stress Test Kit (103017-100). ATP measurement was determined with Cell Titer-Glo Luminescent Cell Viability Assay (Promega, Madison, WI, USA, G7570). Determination of DNA damage using phosphorylated H2AX measurement were performed as previously described. Cardiolipin oxidation using the fluorophore Nonyl Acridine Orange (NAO, Thermo Scientific, A1372) was performed as described. Cell viability was determined by Hoechst inclusion and Propidium iodide (PI) exclusion by standard protocols. TEM analysis were performed as described. […]

[1] = tested on: A549-luc orthotopic lung tumor in athymic nude mice; assay: Orthotopic lung cancer model (A549-luc); assay type: in vivo, mouse
Method: Orthotopic lung cancer model. Athymic nude mice were used. The model was developed following the protocol previously described. On day 20, treatment with the metal complex was started, and 4 doses were given every other day. Tumor growth was measured in vivo by luminescence (IVIS® Spectrum) on the days that the complexes were not administered, ending the experiment on day 37 with the sacrifice of the animal and the removal of organs. Organ indicators of metastases, lungs, and mediastinal lymph nodes were processed as previously described. Histological analyzes were performed as described.

[2] = 4 doses (0.9 mg/kg) on alternate days

Row | Structure (SMILES) | Metal accumulation in SW480 cells (SW480 cells) | Cytosolic Ca2+ (cytosolic Ca2+) | CHOP expression (CHOP) | GSH/GSSG ratio (A549 cells) | Body weight of treated mice [1, 2] | Necropsy findings in non-tumor tissues [1, 2] | Luciferase activity in mediastinal nodes ([1]; 4 doses (0.9 mg/kg), day 37) | Luciferase activity in the primary tumor (lung extracts) ([1]; 4 doses (0.9 mg/kg), day 37) | Size of tumor foci (anti-CK7 immunohistochemistry) ([1]; 4 doses (0.9 mg/kg), day 37)
1 | Cc1c(C)c(C)[c-](C)c1C.[Cl][Ir]1[O]c2ccccc2-c2sc3ccccc3[n+]21 [8[CO,S], [(η^5-Cp*)IrCl(κ^2-O,N-hpbtz)]] | highest accumulation | – | – | – | – | – | – | – | –
2 | Cc1c(C)c(C)[c-](C)c1C.[Cl][Ir]1[c]2ccccc2-c2[nH]c3ccccc3[n+]21 [1[C,NH], [(η^5-Cp*)IrCl(κ^2-N,C-pbim)]] | – | increase in cytosolic Ca^2+ | increased expression | decreased the GSH/GSSG ratio | did not lose weight | no pathological evidence of relevance was detected in non-tumor tissues | lack of effect | significantly reduced luciferase activity in the primary tumor | strong effect on reducing the size of tumor foci
